TGI and GI50 data for eleven molecules are collected here from PubChem BioAssay (NCI).

Molecules are shown by their SMILES.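 Compound exposure: 48 hours, 5 concentrations, 96-well plates. GI50 is the concentration that inhibits growth by half. TGI denotes the concentration required for complete inhibition of growth.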

Among the test systems are HCT-116 colon; CCRF-CEM leukemia; HOP-92 NSCLC; IGROV1 ovarian; MOLT-4 leukemia; OVCAR-4 ovarian; CAKI-1 renal; NCI-H23 lung; MALME-3M melanoma; A498 renal.
Common to all, as to assay: growth of human tumour cells (NCI), 48 h

For the molecule `Cc1ccc(C(=O)CCC2C(=O)CC(C)(C)CC2=O)cc1`, the TGI was more than 100 µM in the test on HCT-116 colon; 55.1 µM in the test with CCRF-CEM leukemia; more than 100 µM with HOP-92 NSCLC; more than 100 µM in the test on IGROV1 ovarian; more than 100 µM in the test with MOLT-4 leukemia; more than 100 µM in the test with OVCAR-4 ovarian. The figures for the TGI with CAKI-1 renal and in the test on NCI-H23 lung were 32 µM and more than 100 µM, respectively.

As for `NCCCn1c2c(c3cc4c(cc3c1=O)OCO4)C(=O)c1ccccc1-2`, the TGI with HCT-116 colon was 0.554 µM; with CCRF-CEM leukemia it was 0.379 µM; with HOP-92 NSCLC it was 2.11 µM; in the test with MOLT-4 leukemia, 0.0742 µM; in the test with OVCAR-4 ovarian, 0.721 µM; in the test with CAKI-1 renal, 2.22 µM. The TGI in the test with NCI-H23 lung stood at 2.09 µM. For the same molecule, the GI50 is 0.0279 µM in the test with CCRF-CEM leukemia; 0.437 µM in the test with HOP-92 NSCLC; 0.0223 µM in the test with MOLT-4 leukemia; 0.199 µM in the test with OVCAR-4 ovarian; 0.688 µM with CAKI-1 renal; 0.564 µM in the test on NCI-H23 lung.

With `C/C=C1\C(=O)O[C@@H]2C1C[C@@H]1O[C@H]2[C@H](C)CCC/C(C)=C/CC[C@@]1(C)O` (some centres not stated), the GI50 in the test on MALME-3M melanoma was 3.47 µM; with HCT-116 colon, 2.81 µM; in the test on CCRF-CEM leukemia it was 3.53 µM; in the test on HOP-92 NSCLC, 7.62 µM; in the test with IGROV1 ovarian, 1.29 µM; with MOLT-4 leukemia, 4.59 µM. Further, the GI50 with CAKI-1 renal was 3.47 µM. Besides, the TGI was 18.5 µM in the test on MALME-3M melanoma; 10.1 µM with HCT-116 colon; 11.8 µM with CCRF-CEM leukemia; 31.5 µM in the test on HOP-92 NSCLC; 3.32 µM in the test on IGROV1 ovarian; more than 100 µM in the test on MOLT-4 leukemia. In the test on CAKI-1 renal, the TGI turned out to be 15.4 µM.

For `Oc1cccc(Cn2c(-c3cccc(O)c3O)nc3ccccc32)c1O`, the GI50 in the test with HCT-116 colon is 2.24 µM; in the test with CCRF-CEM leukemia, 7.56 µM; with A498 renal, 17.6 µM; in the test with HOP-92 NSCLC, 36.8 µM; in the test on IGROV1 ovarian, 34 µM; in the test with MOLT-4 leukemia, 3.21 µM. Further, the values for the GI50 in the test on OVCAR-4 ovarian, in the test on CAKI-1 renal and with NCI-H23 lung were 5.2 µM, 2.26 µM and 3.02 µM, respectively. For the same molecule, the TGI in the test on HCT-116 colon is 10.9 µM; in the test on CCRF-CEM leukemia, more than 100 µM; in the test on A498 renal it was 60.4 µM; in the test with HOP-92 NSCLC it was more than 100 µM; in the test on IGROV1 ovarian, more than 100 µM; with MOLT-4 leukemia, more than 100 µM. The results for the TGI with OVCAR-4 ovarian, in the test with CAKI-1 renal and with NCI-H23 lung were more than 100 µM, 5.85 µM and 14.1 µM, respectively.

`O=S(=O)(NCCCNc1cc(-c2cn(-c3ccccc3)nc2-c2cccc(O)c2)ccn1)c1cccc2ccccc12`: the GI50 in the test on HCT-116 colon was 2.8 µM; with CCRF-CEM leukemia, 3.12 µM; with A498 renal, 1.09 µM; in the test on HOP-92 NSCLC it was 1.41 µM; with IGROV1 ovarian it was 5.86 µM; in the test with OVCAR-4 ovarian, 3.06 µM. For the same molecule, the values for the GI50 with CAKI-1 renal and in the test on NCI-H23 lung were 3.37 µM and 2.89 µM, respectively. For the same molecule, the TGI in the test on HCT-116 colon was 12.4 µM; in the test on CCRF-CEM leukemia it was more than 100 µM; with A498 renal it was 6.62 µM; in the test on HOP-92 NSCLC, 7.28 µM; with IGROV1 ovarian, more than 100 µM; in the test with OVCAR-4 ovarian it was more than 100 µM. Further, the TGI in the test with CAKI-1 renal and in the test on NCI-H23 lung was more than 100 µM in each case.

As for `Cc1cccc2c1O/C(=C\c1ncc([N+](=O)[O-])n1C)C2=O`, the GI50 is 0.185 µM in the test with MALME-3M melanoma; 0.0557 µM in the test with HCT-116 colon; 0.0701 µM with CCRF-CEM leukemia; 0.279 µM in the test with HOP-92 NSCLC; 0.217 µM with IGROV1 ovarian; 0.0449 µM in the test on MOLT-4 leukemia. Also, the GI50 is 0.635 µM in the test with OVCAR-4 ovarian, 0.135 µM in the test with CAKI-1 renal and 0.213 µM in the test with NCI-H23 lung. The TGI in the test on MALME-3M melanoma worked out at 0.474 µM; with HCT-116 colon, 0.422 µM; in the test with CCRF-CEM leukemia, 0.597 µM; with HOP-92 NSCLC, 1.64 µM; with IGROV1 ovarian, 2.92 µM; with MOLT-4 leukemia it was 0.833 µM. Moreover, the TGI with OVCAR-4 ovarian was 6.65 µM; in the test on CAKI-1 renal it was 0.479 µM; in the test on NCI-H23 lung, 0.742 µM.

Take `O=C1C(Cl)=C(Nc2cccc(O)c2)C(=O)N1c1cccc(Cl)c1`: the GI50 is 51.7 µM with MALME-3M melanoma; 21.7 µM in the test on HCT-116 colon; 10.7 µM with CCRF-CEM leukemia; 18.3 µM in the test on IGROV1 ovarian; 23 µM in the test with MOLT-4 leukemia; 50.6 µM in the test on OVCAR-4 ovarian. The GI50 in the test on CAKI-1 renal is 49.9 µM; with NCI-H23 lung, 37.7 µM. The TGI with MALME-3M melanoma is more than 100 µM; with HCT-116 colon, more than 100 µM; with CCRF-CEM leukemia it was 31.8 µM; with IGROV1 ovarian, 51.4 µM; with MOLT-4 leukemia, 71.4 µM; with OVCAR-4 ovarian it was more than 100 µM. The TGI in the test with CAKI-1 renal and with NCI-H23 lung was more than 100 µM each time.

Take `C=CCCC(C)N(C(=O)OC(C)(C)C)S(=O)(=O)c1ccc(C)cc1` (configuration not stated): the TGI with MALME-3M melanoma, in the test on HCT-116 colon, with HOP-92 NSCLC, with IGROV1 ovarian, in the test on MOLT-4 leukemia and in the test on OVCAR-4 ovarian was more than 100 µM each time. The TGI with CAKI-1 renal and in the test on NCI-H23 lung was more than 100 µM in each case.

Turning to `O=C(N/C(=C\c1ccc([N+](=O)[O-])cc1)c1nc2ccc(Cl)cc2[nH]1)c1ccccc1`, the TGI with MALME-3M melanoma is 97.9 µM; with CCRF-CEM leukemia, 95.1 µM; in the test with HOP-92 NSCLC it was 34.3 µM; with IGROV1 ovarian, 43.8 µM; in the test with MOLT-4 leukemia it was 54 µM; with OVCAR-4 ovarian it was 60.8 µM. In addition, the TGI with CAKI-1 renal worked out at 59.6 µM; in the test with NCI-H23 lung, 44.6 µM.

Consider `S=P(c1ccccc1)(c1ccccc1)C1(C2(P(=S)(c3ccccc3)c3ccccc3)CC2)CC1`, for which the TGI with HCT-116 colon, with CCRF-CEM leukemia, with IGROV1 ovarian, with MOLT-4 leukemia, in the test on OVCAR-4 ovarian and in the test on NCI-H23 lung was more than 100 µM in each case.

Turning to `COc1ccc(-c2csc(NC(=O)N3CCN(c4cc5c(cc4F)c(=O)c(C(=O)O)cn5C4CC4)CC3)n2)cc1`, the GI50 in the test on HCT-116 colon is 1.72 µM; with CCRF-CEM leukemia, 1.43 µM; in the test on A498 renal, 2.59 µM; in the test with HOP-92 NSCLC, 1.6 µM; with IGROV1 ovarian, 2.36 µM; with MOLT-4 leukemia, 2.54 µM. The TGI in the test on HCT-116 colon was more than 100 µM; in the test with CCRF-CEM leukemia, 13.1 µM; in the test with A498 renal it was 15.6 µM; in the test with HOP-92 NSCLC, 6.56 µM; in the test with IGROV1 ovarian it was more than 100 µM; in the test on MOLT-4 leukemia, 9.42 µM.
